The text below walks through data of US6162463A (priority 1998, dated 2000).

Data set [1] is described as follows: clinical. Particulars: po, 120 mg.
Description: (§1) An interval of approximately 5-7 days elapsed between the administration of each agent tested in this example.
(§2) (TM) containing EDTA (ethylenediamine tetraacetic acid) as an anticoagulant just before administration of the test agent; this sample represented the zero time sample. The blood sample was centrifuged for 15 minutes under conditions known to those skilled in the art. The plasma portion of each sample was harvested, frozen and stored at minus 70 degrees Celsius until analysis. At timed intervals after administration, additional blood samples were withdrawn and similarly treated.
For data set [2] the following is noted: oral, 120 mg diltiazem hydrochloride, after administration; FIG. 6.
Description: as §1, §2
The conditions of data set [3]: cited from earlier work.
Data set [4] relates to angina pectoris. The note with it: cited from earlier work.

One may read the Tmax as the time at which the peak concentration occurs.

Counter-ions that a name gives are not always drawn.

For `COc1ccc([C@@H]2Sc3ccccc3N(CCN(C)C)C(=O)[C@@H]2OC(C)=O)cc1` [diltiazem hydrochloride], the Tmax in data set [1] (human, plasma) is 1 to 2 h; in data set [1] (in vivo), 1 to 2 h. In addition, the “time by which most of the quick release preparation is gone (plasma)” value in data set [2] lay within 5 to 6 h.

With `COc1ccc([C@@H]2Sc3ccccc3N(CCN(C)C)C(=O)[C@@H]2OC(C)=O)cc1` [diltiazem], in data set [3] (oral), the “decrease in bioavailability by first-pass metabolism (loss)” value is at most 60%. Besides, in data set [3] (references 17, 19), the plasma half-life is 2 to 6 h. Also, the “incidence of side effects compared with other calcium channel blockers” value in data set [4] (human, in vivo) was “lower incidence of side effects”. In data set [4] (reference 1), the “safety and efficacy in stable and unstable angina pectoris” value was “safe and effective treatment for both stable and unstable angina pectoris”.
